Tests used:
faecal microbiota = experiment: Faecal batch culture with antibiotics promoting CRE colonisation: 1H-NMR of nutrients and metabolites; type: cell-based, human; details: 11 healthy donors, antibiotic at faecal concentration, 24 hours anaerobic
Description: The inventors performed faecal culture experiments to measure the effects of eight broad-spectrum antibiotics on the faecal microbiota collected from 11 healthy human donors. Faecal culture experiments were performed under anaerobic conditions using a complex gut growth medium that was designed to mimic the nutrients found in the human distal gut (McDonald, J. A. et al. Evaluation of microbial community reproducibility, stability and composition in a human distal gut chemostat model. J. Microbiol. Methods 95, 167-174 (2013)). […] Moon, Y. S., Chung, K. C. & Gill, M. A. Pharmacokinetics of meropenem in animals, healthy volunteers, and patients. Clin Infect Dis 24, S249-S255 (1997). Kager, L., Brismar, B., Malmborg, A. S. & Nord, C. E. Imipenem concentrations in colorectal surgery and impact on the colonic microflora. Antimicrob Agents Chemother 33, 204-8 (1989). Pletz, M. et al. Ertapenem pharmacokinetics and impact on intestinal microflora, in comparison to those of ceftriaxone, after multiple dosing in male and female volunteers. Antimicrob Agents Chemother 48, 3765-72 (2004). Nord, C. E., Brismar, B., Kasholm-Tengve, B. & Tunevall, G. Effect of piperacillin/tazobactam treatment on human bowel microflora. J Antimicrob Chemother 31, 61-5 (1993). […] Antimicrob Agents Chemother 63, 2244 (2019). Pessôa de Menezes e Silva, C H. Elaboration and evaluation of a new screening medium for detection and presumptive identification of extended-spectrum beta-lactamase-producing organisms (ESBL). Braz J Microbiol 31, 271-274 (2000). Brismar, B., Edlund, C., Malmborg, A. S. & Nord, C. […] Antimicrob Agents Chemother 34, 481-3 (1990)). Cultures were incubated anaerobically at 37° C. for 24 hours. Samples were analysed by ^1H-NMR spectroscopy (for nutrient and metabolite profiling) and […] rRNA gene sequencing with 16S rRNA gene qPCR (for bacterial composition and biomass) (McDonald, J. A. K. et a/. Inhibiting Growth of Clostridioides difficile by Restoring Valerate, Produced by the Intestinal Microbiota. Gastroenterology 155, 1495-1507 (2018)).
Supernatants were prepared from faeces by vortexing 300 mg of faeces in 900 μl of HPLC-grade water for 10 minutes at 3000 rpm followed by centrifugation at 17,000×g for 10 minutes at 4° C. Supernatants were prepared from faecal culture samples by centrifugation at 17,000×g for 10 minutes at 4° C. Supernatants were frozen at −80° C. until they were ready for analysis.
^1H-NMR spectroscopy was performed as previously described (McDonald, J. A. K. et al. Inhibiting Growth of Clostridioides difficile by Restoring Valerate, Produced by the Intestinal Microbiota. Gastroenterology 155, 1495-1507 (2018)). Briefly, sample supernatants were randomized and defrosted at room temperature for 1 hour. Sample supernatants were then centrifuged for 10 min at 17 000×g and 4° C. The pellet was discarded and 400 μl of supernatant was added to 250 μl NMR buffer (28.85 g Na2HPO4, 5.25 g NaH2PO4, 1 mM TSP, 3 mM NaN3, deuterium oxide to 1 L, pH 7.4). 600 μl of sample was used to fill each 5 mm NMR tube to be loaded into the SampleJet system.
^1H-NMR spectroscopy was performed using the Bruker AVANCE III HD 800 MHz spectrometer (Bruker Bio-Spin, Rheinstetten, Germany). 1D spectra (a standard NOESYGPPR1D pulse sequence (RD-90°-t1-90°-tm-90°-ACQ)) as well as 2D spectra (standard 2D JRESGPPRQF pulse sequence) were acquired. A recycle delay of 4 seconds and mixing time of 100 ms was used. The 90° pulse length was approximately 10 μs and 32 scans were recorded.
NMR spectra were imported into MATLAB r2019b (The Mathworks, USA) using an in-house script. Spectra were aligned and the water (4.6-5 ppm) and TSP (−0.2-0.2 ppm) peaks were cut. Compounds were identified by comparison to spectral databases in Chenomx NMR Suite (Chenomx, Canada). Representative peaks were integrated for quantification of compounds.

[1] = test system: vancomycin-resistant E. faecium; experiment: VRE nutrient utilization protocol: carbon sources; type: cell-based, Enterococcus faecium; details: aerobic; VRE minimal medium
Description: (§1) VRE minimal media consists of potassium phosphate monobasic (4 g/L), potassium phosphate dibasic (14 g/L), sodium citrate (1 g/L), magnesium sulphate (0.2 g/L), ammonium sulphate (2 g/L), adenosine (0.04 g/L), thymine (0.04 g/L), Kao and Michayluk vitamin solution [Sigma, K3129, 50× Stock](5×), glucose (1 g/L) and amino acid solution [Sigma, R7131, RPMI-1640, 50×](25×). If the study was performed under anaerobic conditions, fumarate (5.2 g/L) was added to increase growth of VRE strains. Carbon-free minimal media was prepared by leaving out glucose while nitrogen-free minimal media was prepared without the amino acid solution. Media was filter sterilized with a 0.22 micron filter and used immediately aerobically or degassed overnight if used anaerobically.
(§2) VRE strains were grown on R2A overnight before the cells were suspended in 0.9% saline to an OD of 0.38 (λ=595 nm). A 10% dilution of the cell suspension was prepared using VRE minimal media to achieve a final well OD of […] (λ=595 nm) greater than the sterile media OD. Both carbon and nitrogen source utilization were evaluated by adding the inoculated media and a filter-sterilised nutrient source solution into a well in a 1:1 ration to a final volume of 100 μL in aerobic tests and 200 μL in anaerobic tests. Carbon sources were tested individually and compared to a carbon-free control. To test nitrogen source utilization, a nitrogen source solution was prepared containing L-alanine (2 g/L), L-arginine (2.5 g/L, L-asparagine (0.71 g/L), L-aspartate (0.25 g/L), L-cysteine (0.625 g/L), L-glutamate (0.25 g/L), L-Glycine (0.125 g/L), L-histidine (0.1875 g/L), L-isoleucine (0.625 g/L), L-leucine (0.625 g/L), L-lysine HCl (0.5 g/L), L-methionine (0.1875 g/L), L-phenylalanine (0.1875 g/L), L-proline (0.25 g/L), L-serine (0.375 g/L), L-threonine (0.25 g/L), L-tryptophan (0.0625 g/L), L-tyrosine (0.29 g/L), L-valine (0.25 g/L), N-acetylglucosamine (2 g/L), and uracil (2.5 g/L). To test the strains' ability to utilize individual nitrogen sources, separate solutions were prepared eliminating one nitrogen source each. The change in growth compared to the complete nitrogen source solution control was used to determine nitrogen utilization. All carbon and nitrogen sources were tested in a technical triplicate for each biological replicate. Aerobic plates were incubated with a plate seal while anaerobic plates were not. The aerobic plate reader was set to read the plate (λ=595 nm, 37° C., 22 flashes per well, orbital shaking of 100 rpm for 15 s prior to each read) every 15 minutes for 24 hours. The anaerobic plate reader read the plate (λ=595 nm, 37° C., stationary) every 15 minutes for 24 hours.

[2] = test system: vancomycin-resistant E. faecalis; experiment: VRE nutrient utilization protocol: carbon sources; type: cell-based, Enterococcus faecalis; details: aerobic; VRE minimal medium
Description: as §1, §2

[3] = test system: NDM-1 Enterobacter cloacae; experiment: Carbon utilisation assay; type: cell-based; details: anaerobic; M9 minimal medium, 0.5% (w/v) carbon source
Description: (§3) New Delhi Metallo-β-lactamase 1 (NDM-1) Escherichia coli, NDM-1 Klebsiella pneumoniae, and NDM-1 Enterobacter cloacae were isolated from patients with intestinal CRE colonisation from the Imperial College Healthcare NHS Trust via rectal swab (REC ref. 19/LO/0112). The species were assigned by matrix assisted laser desorption ionization-time of flight (MALDI-TOF) mass spectrometry and later confirmed with 16S rRNA gene sequencing. CRE status was determined using X-pert Carba-R PCR detection (Cepheid, Sunnyvale, CA, USA), (Otter, J. A. et al. Detecting carbapenemase-producing Enterobacterales (CPE): an evaluation of an enhanced CPE infection control and screening programme in acute care. J Antimicrob Chemother 75, 2670-2676 (2020)).
(§4) Growth of CRE isolates on sole carbon or nitrogen sources was tested by inoculating each CRE isolate into a minimal medium supplemented with the nutrient of interest. First, CRE isolates were passaged from frozen glycerol stocks on Reasoner's 2A agar (R2A) plates. Cells were then suspended in M9 minimal media to a turbidity of 42% using a Turbidimeter (Biolog Inc.), then diluted a further 1 in 6 to inoculate the carbon or nitrogen utilisation assays. M9 minimal media contained the following (at final concentrations): 22 mM KH2PO4, 42 mM Na2HPO4, 9 mM NaCl, 0.49 mM MgSO4·7H2O, 0.09 mM CaCl2), 0.011 mM FeSO4·7H2O. For the carbon assays the M9 minimal medium was also supplemented with 0.1% (w/v) NH4Cl (as the nitrogen source) and the carbon sources were individually tested at 0.5% (w/v) concentration. For the nitrogen assays the M9 minimal medium was also supplemented with 0.5% (w/v) glucose (as the carbon source) and the nitrogen sources were individually tested at 0.1% (w/v) concentration. Cultures were incubated anaerobically and aerobically in a plate reader and OD600 readings were collected every 15 minutes for 24 hours.
(§5) Growth curves were analysed in Python (v3.6.5) using the AMiGA software (Midani, F. S., Collins, J. & Britton, R. A. AMiGA: Software for Automated Analysis of Microbial Growth Assays. mSystems 6, e0050821 (2021)). Growth of each isolate was measured with 6 wells from 2-3 independent experiments. Growth curves were normalised to the no substrate control using the subtraction method. AMiGA performed Gaussian Process regression to test differential growth between the substrate and the no substrate control. The functional difference in the OD (and its credible interval) was also computed between the substrate and the no substrate control.

[4] = test system: NDM-1 Klebsiella pneumoniae; experiment: Carbon utilisation assay; type: cell-based; details: M9 minimal medium, 0.5% (w/v) carbon source
Description: as §3, §4, §5

NDM-1 Escherichia coli [5] = experiment: Carbon utilisation assay; type: cell-based; details: M9 minimal medium, 0.5% (w/v) carbon source
Description: as §3, §4, §5

NDM-1 Escherichia coli [6] = experiment: Nutrient preference assay (nutrient mixture); type: cell-based; details: aerobic; M9 with […] of each nutrient, up to 24 hours
Description: as §3
CRE isolates were passaged once from frozen glycerol stocks on R2A plates. Cells were suspended in M9 minimal media to a turbidity of 42% using a Turbidimeter (Biolog Inc.), then diluted 1 in 6 to inoculate the nutrient preference assays. M9 minimal media was supplemented with 0.015% of each of the following: L-arabinose, D-fructose, L-fucose, D-galactose, D-glucose, D-mannose, D-ribose, D-xylose, N-acetylglucosamine, D-maltose, sucrose, D-trehalose, L-alanine, L-arginine, L-aspartate, L-glutamate, L-glycine, L-isoleucine, L-leucine, L-lysine, L-methionine, L-phenylalanine, L-proline, L-threonine, L-tryptophan, L-tyrosine, L-valine, uracil, and succinate. Cultures were incubated anaerobically and aerobically in a plate reader and OD600 readings were collected every 15 minutes for 24 hours. Cultures were also incubated anaerobically and aerobically for 24 h and samples were collected at 0, 4, 8, and 24 hours post-inoculation for 1H-NMR spectroscopy. Changes in nutrients and metabolites by CRE isolates was compared to the sterile media control over time using a two-way mixed ANOVA followed by pairwise comparisons with Bonferroni correction. […]

| Molecule | Change in butyrate concentration in faecal cultures (faecal microbiota) | Use as sole carbon source to support E. faecium growth [1] | Use as sole carbon source to support E. faecalis growth [2] | Use as sole carbon source to support E. cloacae growth [3] | Use as sole carbon source to support K. pneumoniae growth ([4]; anaerobic) | Use as sole carbon source to support E. coli growth (NDM-1 Escherichia coli [5]; anaerobic) | Use as sole carbon source to support E. coli growth (NDM-1 Escherichia coli [5]; aerobic) | Use as sole carbon source to support K. pneumoniae growth ([4]; aerobic) | Utilisation of nutrient by E. coli from nutrient mixture (1H-NMR) (NDM-1 Escherichia coli [6]) |
| --- | --- | --- | --- | --- | --- | --- | --- | --- | --- |
| C[C@@H](O)[C@H]1C(=O)N2C(C(=O)O)=C(S[C@@H]3CN[C@H](C(=O)Nc4cccc(C(=O)O)c4)C3)[C@H](C)[C@H]12 [ETP, ertapenem] | decreased | – | – | – | – | – | – | – | – |
| C[C@@H](O)[C@H]1C(=O)N2C(C(=O)O)=C(S[C@@H]3CN[C@H](C(=O)N(C)C)C3)[C@H](C)[C@H]12 [MEM, meropenem] | increased | – | – | – | – | – | – | – | – |
| O=C(CO)[C@@H](O)[C@H](O)[C@H](O)CO [fructose, D-fructose] | – | could use | could use | could use | could use | could use | – | – | – |
| O=C[C@H](O)[C@@H](O)[C@@H](O)[C@H](O)CO [galactose, D-galactose] | – | could use | could use | could use | could use | could use | – | – | – |
| OC[C@H]1O[C@H](O[C@H]2[C@H](O)[C@@H](O)[C@H](O)O[C@@H]2CO)[C@H](O)[C@@H](O)[C@@H]1O [maltose, D-maltose] | – | could use | could use | could use | could use | – | able to grow | – | – |
| O=C[C@H](O)[C@H](O)[C@H](O)CO [ribose, D-ribose] | – | could use | could use | could use | – | – | able to grow | able to grow | – |
| OC[C@H]1O[C@@](CO)(O[C@H]2O[C@H](CO)[C@@H](O)[C@H](O)[C@H]2O)[C@@H](O)[C@@H]1O [sucrose] | – | – | could use | could use | could use | – | able to grow | – | moderate utilisation |
| imipenem/cilastatin [IPM] | increased | – | – | – | – | – | – | – | – |

— US20260183350A1, “ANTIBIOTIC-RESISTANT BACTERIA” (priority 2022, published 2026)
